Laboratory results published in the supplement of paper PMC10307832.

Columns and labels:
Experiment in all cases: relative viability (nuclei count vs DMSO), 5 days (fraction); higher = more cells survive
[1] = compound: C1COCCN1C2=NC(=NC3=C2OC4=C3C=CC=N4)C5=CC(=CC=C5)NC(=O)C6=CN=C(C=C6)N + C[C@]1(O)C[C@@H](c2nc(-c3ccc4ccc(-c5ccccc5)nc4c3)c3c(N)nccn32)C1 [Linsitinib] (partner 1 µM)
Outline: (§1)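 Dosing by pin tool came one day after lung cancer cell lines were seeded in 1536-well plates, using either one drug or a fixed anchor-drug dose plus five library-drug doses (not always all listed) in √10 steps. After 5 days, nuclei were counted on 4× images. Relative viability is treated-well nuclei count divided by vehicle-well nuclei count, and values are medians of duplicate plates.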

[2] = compound: C1COCCN1C2=NC(=NC3=C2OC4=C3C=CC=N4)C5=CC(=CC=C5)NC(=O)C6=CN=C(C=C6)N + O=C(c1cc(Cc2n[nH]c(=O)c3ccccc23)ccc1F)N1CCN(C(=O)C2CC2)CC1 [Olaparib] (partner 8 µM)
Outline: as §1

[3] = compound: CN1CCC(CNc2ccc3ncc(-c4cccc(OC(F)(F)F)c4)n3n2)CC1 [SGI-1776] + Cc1nc(NC(=O)N2CCC[C@H]2C(N)=O)sc1-c1ccnc(C(C)(C)C(F)(F)F)c1 [Alpelisib] (partner 2 µM)
Outline: as §1

[4] = compound: CN1CCC(CNc2ccc3ncc(-c4cccc(OC(F)(F)F)c4)n3n2)CC1 [SGI-1776] + Cc1nc(Nc2ncc(C(=O)Nc3c(C)cccc3Cl)s2)cc(N2CCN(CCO)CC2)n1 [Dasatinib] (partner 0.075 µM)
Outline: as §1

| Cell Line | relative viability ([1]; first compound 0.02 µM) | relative viability ([1]; first compound 0.06325 µM) | relative viability ([1]; first compound 0.2 µM) | relative viability ([1]; first compound 0.6325 µM) | relative viability ([1]; first compound 2 µM) | relative viability ([2]; first compound 0.02 µM) | relative viability ([2]; first compound 0.06325 µM) | relative viability ([2]; first compound 0.2 µM) | relative viability ([2]; first compound 0.6325 µM) | relative viability ([2]; first compound 2 µM) | relative viability ([3]; first compound 0.08 µM) | relative viability ([3]; first compound 0.8 µM) | relative viability ([3]; first compound 2.53 µM) | relative viability ([3]; first compound 8 µM) | relative viability ([4]; first compound 0.08 µM) | relative viability ([4]; first compound 0.8 µM) | relative viability ([4]; first compound 2.53 µM) | relative viability ([4]; first compound 8 µM) |
| --- | --- | --- | --- | --- | --- | --- | --- | --- | --- | --- | --- | --- | --- | --- | --- | --- | --- | --- |
| SK-MES-1 | 0.99 | 1.24 | 1.13 | 1.04 | 0.791 | 0.71 | 0.816 | 0.611 | 0.51 | 0.427 | 0.896 | 0.897 | 1.01 | 0.647 | 0.476 | 0.415 | 0.35 | 0.211 |
| NCI-H3122 | 0.93 | 1.11 | 0.976 | 0.988 | 0.821 | 0.665 | 0.614 | 0.625 | 0.935 | 0.483 | 0.707 | 0.837 | 0.868 | 0.757 | 0.877 | 0.76 | 0.96 | 0.821 |
| NCI-H2085 | 0.839 | 1.02 | 0.885 | 0.82 | 0.456 | 0.735 | 0.793 | 0.747 | 0.68 | 0.547 | 1.01 | 0.96 | 0.978 | 0.844 | 0.248 | 0.264 | 0.243 | 0.201 |
| PC-14 | 0.991 | 0.999 | 0.953 | 0.86 | 0.502 | 0.304 | 0.284 | 0.249 | 0.248 | 0.186 | 1.12 | 0.956 | 0.976 | 0.757 | 0.267 | 0.256 | 0.0958 | 0.0261 |
| NCI-H1355 | 0.871 | 0.933 | 0.815 | 0.789 | 0.68 | 0.736 | 0.886 | 0.781 | 0.757 | 0.572 | 0.835 | 0.97 | 0.847 | 0.66 | 0.778 | 0.722 | 0.52 | 0.604 |
| NCI-H727 | 0.284 | 0.31 | 0.24 | 0.257 | 0.256 | 0.723 | 0.802 | 0.746 | 0.605 | 0.606 | 0.75 | 0.532 | 0.655 | 0.538 | 0.4 | 0.426 | 0.351 | 0.356 |
| NCI-H1755 | 1.02 | 1.01 | 0.992 | 0.94 | 0.509 | 0.875 | 0.922 | 0.92 | 0.702 | 0.594 | 0.996 | 0.944 | 0.885 | 0.795 | 0.454 | 0.437 | 0.351 | 0.287 |
| NCI-H1651 | 0.996 | 0.917 | 0.957 | 1.09 | 0.357 | 0.177 | 0.18 | 0.195 | 0.171 | 0.161 | 0.97 | 0.957 | 0.834 | 0.752 | 0.535 | 0.378 | 0.381 | 0.312 |
| NCI-H647 | 1.11 | 1.27 | 1.19 | 0.901 | 0.588 | 0.684 | 0.69 | 0.573 | 0.606 | 0.256 | 1.31 | 1.15 | 1.1 | 0.558 | 0.188 | 0.184 | 0.111 | 0.117 |
| NCI-H1944 | 1.19 | 1.17 | 1.16 | 1.13 | 1 | 0.424 | 0.41 | 0.42 | 0.413 | 0.512 | 0.877 | 0.752 | 0.807 | 0.649 | 0.223 | 0.2 | 0.223 | 0.173 |
| LK-2 | 0.464 | 0.797 | 0.625 | 0.624 | 0.395 | 0.609 | 0.902 | 0.691 | 0.651 | 0.464 | 0.93 | 1.06 | 0.829 | 0.793 | 0.301 | 0.354 | 0.253 | 0.173 |
| HCC-15 | 0.871 | 0.926 | 0.813 | 0.832 | 0.634 | 0.757 | 0.775 | 0.735 | 0.671 | 0.628 | 0.912 | 0.836 | 0.895 | 0.71 | 0.577 | 0.551 | 0.466 | 0.382 |
| NCI-H838 | 0.977 | 1.08 | 0.933 | 0.78 | 0.371 | 0.86 | 0.812 | 0.743 | 0.741 | 0.353 | 1.1 | 1.01 | 0.95 | 0.874 | 0.282 | 0.275 | 0.256 | 0.257 |
| HOP-62 | 0.675 | 0.967 | 0.825 | 0.934 | 0.773 | 0.632 | 0.5 | 0.447 | 0.7 | 0.255 | 0.914 | 0.942 | 0.979 | 0.807 | 0.724 | 0.679 | 0.531 | 0.597 |
| NCI-H322M | 0.817 | 0.981 | 0.884 | 0.924 | 0.759 | 0.793 | 0.77 | 0.685 | 0.943 | 0.586 | 0.883 | 0.934 | 0.928 | 0.756 | 0.27 | 0.252 | 0.208 | 0.252 |
| NCI-H1395 | 0.901 | 1 | 1.08 | 1.19 | 0.875 | 0.473 | 0.427 | 0.422 | 0.461 | 0.377 | 1.09 | 1.02 | 0.996 | 0.631 | 0.381 | 0.379 | 0.394 | 0.373 |
| NCI-H650 | 0.876 | 0.876 | 0.857 | 0.837 | 0.659 | 0.403 | 0.405 | 0.379 | 0.371 | 0.408 | 1.19 | 1.04 | 1.04 | 0.921 | 0.492 | 0.497 | 0.434 | 0.37 |
